Assay results reported in ChEMBL document CHEMBL1201862, “PubChem BioAssay data set” (2004).
Active and inactive are the calls of the source.

Experiments:
[1] = target: Troponin, cardiac muscle (Homo sapiens, UniProt P19429+P45379+P63316); assay: Fluorescence-based biochemical high throughput dose response assay for activators of the calcium sensitivity of cardiac Regulated Thin Filaments (RTF). [Related pubchem assays (depositor defined):AID493008, AID493018, AID504382, AID504383]; assay type: protein-complex assay
[2] = tested on: BJ; assay: BJ-TERT fibroblast viability loss – cell-based, RAS-independent, luminescence, dose response (AID 1933); assay type: functional; conditions: Homo sapiens
[3] = tested on: BJ; assay: cells; assay type: functional, cell-based; conditions: Homo sapiens
[4] = tested on: BJ; assay: BJ-TERT-LT-ST fibroblast viability loss – cell-based, RAS-independent, luminescence, dose response (AID 1935); assay type: functional; conditions: Homo sapiens;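 also: BJ fibroblasts immortalized with TERT plus LT and ST oncogenes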
[5] = DRD fibroblast viability loss – cell-based, non-viral oncogenic, luminescence, dose response (AID 1934); assay type: functional; conditions: Homo sapiens
[6] = target: Glutathione S-transferase omega-1 (Homo sapiens, UniProt P78417); assay: IC50 of human GSTO1 inhibition by gel ABPP – biochemical, SE-Rh probe, in-gel fluorescence, powder samples, late-stage follow-up (AID 463081); assay type: functional
[7] = (§1) Late stage assay provider results from the probe development effort to identify inhibitors of GSTO1: luminescence-based […] dose response assay to determine cytotoxicity of inhibitor compounds. [Related pubchem assays (depositor defined):AID1515, AID1974, AID2175, AID2176, AID463081, AID463098, AID463101, AID463102, AID463110, AID463142] Panel member name: Assay 1: % Surviving cells, serum-free media; assay type: toxicity, cell-based
[8] = as §1, with “Assay 2:” for “Assay 1:”, “cells,” for “cells, serum-free”, “media plus FCS” for “media”; assay type: toxicity, cell-based
[9] = target: T1, Microphthalmia-associated transcription factor (Homo sapiens, UniProt O75030); assay: reducers of TRPM1 reporter luminescence, concentration series – cell-based, SK-MEL-5, cherry-picked, set 3, MITF inhibitor project, dose response (AID 493073); assay type: functional;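 also: SK-MEL-5 melanoma cells with luciferase driven by the MITF target TRPM1 promoter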
T1 sequence (O75030 whole entry): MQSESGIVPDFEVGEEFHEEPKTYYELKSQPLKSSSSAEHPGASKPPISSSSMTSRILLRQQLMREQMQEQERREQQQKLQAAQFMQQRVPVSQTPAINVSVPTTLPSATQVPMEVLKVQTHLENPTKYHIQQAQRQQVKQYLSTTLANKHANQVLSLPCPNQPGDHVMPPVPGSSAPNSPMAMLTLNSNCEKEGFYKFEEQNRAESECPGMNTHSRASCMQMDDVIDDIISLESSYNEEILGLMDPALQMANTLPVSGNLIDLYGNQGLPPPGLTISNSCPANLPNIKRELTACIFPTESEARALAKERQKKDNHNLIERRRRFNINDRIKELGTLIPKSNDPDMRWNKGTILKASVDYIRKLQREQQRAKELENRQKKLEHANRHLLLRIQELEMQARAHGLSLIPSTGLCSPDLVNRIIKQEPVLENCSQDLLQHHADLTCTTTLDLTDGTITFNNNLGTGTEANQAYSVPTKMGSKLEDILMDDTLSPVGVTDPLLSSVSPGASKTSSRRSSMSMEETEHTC

[10] = target: T2, Replicative DNA helicase DnaB (Mycobacterium tuberculosis, UniProt P9WMR3); assay: DnaB intein splicing inhibitors, dose response, biochemical, cell-free fluorescence (AID 449749); assay type: functional
T2 sequence (P9WMR3 whole entry): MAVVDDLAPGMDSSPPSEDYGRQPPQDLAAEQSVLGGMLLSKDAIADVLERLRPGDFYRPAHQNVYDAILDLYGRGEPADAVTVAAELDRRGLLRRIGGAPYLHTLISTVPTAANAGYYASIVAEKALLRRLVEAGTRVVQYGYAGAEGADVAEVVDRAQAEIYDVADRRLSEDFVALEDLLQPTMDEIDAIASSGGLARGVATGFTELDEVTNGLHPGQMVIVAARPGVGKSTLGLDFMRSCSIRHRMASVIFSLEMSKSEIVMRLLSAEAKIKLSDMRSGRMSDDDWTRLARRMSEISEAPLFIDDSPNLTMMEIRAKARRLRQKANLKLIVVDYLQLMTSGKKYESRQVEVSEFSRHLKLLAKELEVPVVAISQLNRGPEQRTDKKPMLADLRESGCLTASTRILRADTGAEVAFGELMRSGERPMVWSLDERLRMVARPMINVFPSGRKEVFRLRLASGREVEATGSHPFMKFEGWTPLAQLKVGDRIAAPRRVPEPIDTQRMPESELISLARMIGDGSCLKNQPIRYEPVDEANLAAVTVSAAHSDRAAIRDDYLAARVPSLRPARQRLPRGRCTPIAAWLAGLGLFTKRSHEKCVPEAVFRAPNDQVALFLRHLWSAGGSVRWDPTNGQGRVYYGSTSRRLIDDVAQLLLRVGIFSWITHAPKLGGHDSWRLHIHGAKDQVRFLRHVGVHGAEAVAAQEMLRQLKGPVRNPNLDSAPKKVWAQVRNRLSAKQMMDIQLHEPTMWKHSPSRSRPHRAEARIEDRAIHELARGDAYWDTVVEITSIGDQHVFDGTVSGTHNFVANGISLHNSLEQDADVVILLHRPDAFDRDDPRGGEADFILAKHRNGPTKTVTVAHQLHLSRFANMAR

[11] = target: T3, Protein RecA (Mycobacterium tuberculosis, UniProt P9WHJ3); assay: Fluorescence Cell-Free Homogeneous Dose Retest to Identify Inhibitors of RecA-Intein Splicing Activity. [Related pubchem assays (depositor defined):AID2097, AID2223, AID489010, AID492950]; assay type: functional
T3 sequence (P9WHJ3 whole entry): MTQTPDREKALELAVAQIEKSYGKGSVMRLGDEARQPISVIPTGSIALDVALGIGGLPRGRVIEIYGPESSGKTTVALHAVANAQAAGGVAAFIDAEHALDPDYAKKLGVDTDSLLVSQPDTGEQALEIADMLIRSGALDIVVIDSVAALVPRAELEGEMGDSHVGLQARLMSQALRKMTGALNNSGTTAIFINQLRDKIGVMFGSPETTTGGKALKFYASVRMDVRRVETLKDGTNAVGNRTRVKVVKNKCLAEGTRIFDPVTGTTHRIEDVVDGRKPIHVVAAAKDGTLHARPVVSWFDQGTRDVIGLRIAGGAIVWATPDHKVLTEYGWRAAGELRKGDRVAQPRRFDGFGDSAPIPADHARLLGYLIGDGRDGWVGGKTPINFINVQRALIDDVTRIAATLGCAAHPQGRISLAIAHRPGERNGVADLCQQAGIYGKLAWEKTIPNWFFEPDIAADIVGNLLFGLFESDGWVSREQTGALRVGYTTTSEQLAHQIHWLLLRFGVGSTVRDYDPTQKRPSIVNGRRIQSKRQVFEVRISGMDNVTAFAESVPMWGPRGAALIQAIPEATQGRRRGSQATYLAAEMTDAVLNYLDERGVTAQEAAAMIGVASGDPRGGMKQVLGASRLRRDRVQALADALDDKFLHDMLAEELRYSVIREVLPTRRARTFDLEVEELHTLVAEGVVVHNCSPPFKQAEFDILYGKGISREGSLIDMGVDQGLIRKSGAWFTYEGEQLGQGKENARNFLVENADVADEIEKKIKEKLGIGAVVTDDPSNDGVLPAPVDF

[12] = target: Paired box protein Pax-8 (Homo sapiens, UniProt Q06710); assay: PAX8 transcriptional activity inhibition in RMG-I – RMG-I cells, luciferase, cherry-pick, dose response (AID 687027); assay type: functional, cell-based;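 also: luciferase reporter driven by Pax8 target thyroperoxidase promoter measured by SteadyGlo luminescence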
[13] = general cell-killing toxicity readout – plate reader, dry powder samples, cytotoxicity control for PAX8 inhibitor project, dose response (AID 743021); assay type: functional, cell-based
[14] = target: T4, Coagulation factor XII (Homo sapiens, UniProt P00748); assay: Factor XIIa Dose Response Confirmation from Single Well HTS. [Related pubchem assays (depositor defined):AID701]; assay type: functional
T4 sequence (P00748 whole entry): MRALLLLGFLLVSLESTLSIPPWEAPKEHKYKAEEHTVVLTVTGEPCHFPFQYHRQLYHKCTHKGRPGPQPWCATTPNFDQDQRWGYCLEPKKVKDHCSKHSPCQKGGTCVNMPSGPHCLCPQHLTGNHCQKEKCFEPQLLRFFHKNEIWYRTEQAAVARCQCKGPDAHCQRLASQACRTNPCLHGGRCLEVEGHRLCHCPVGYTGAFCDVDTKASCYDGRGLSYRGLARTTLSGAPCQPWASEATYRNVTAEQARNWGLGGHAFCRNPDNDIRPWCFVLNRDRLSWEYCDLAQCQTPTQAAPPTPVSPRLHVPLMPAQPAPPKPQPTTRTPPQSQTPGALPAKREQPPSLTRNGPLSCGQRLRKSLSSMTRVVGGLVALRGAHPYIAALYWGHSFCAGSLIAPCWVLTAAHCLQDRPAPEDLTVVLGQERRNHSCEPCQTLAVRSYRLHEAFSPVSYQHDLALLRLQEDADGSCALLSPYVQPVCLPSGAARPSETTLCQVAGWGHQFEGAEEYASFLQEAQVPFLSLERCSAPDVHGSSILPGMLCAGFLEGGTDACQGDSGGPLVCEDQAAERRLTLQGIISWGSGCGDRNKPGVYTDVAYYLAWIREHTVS

[15] = target: T5, Corticotropin-releasing factor receptor 2/Corticotropin-releasing factor-binding protein (Homo sapiens, UniProt P24387+Q13324); assay: activators of CRF receptor 2 with binding protein – uHTS hits, confirmation (AID 602473); assay type: functional; conditions: read-out: EC50_Mean
T5 sequence (Q13324 whole entry): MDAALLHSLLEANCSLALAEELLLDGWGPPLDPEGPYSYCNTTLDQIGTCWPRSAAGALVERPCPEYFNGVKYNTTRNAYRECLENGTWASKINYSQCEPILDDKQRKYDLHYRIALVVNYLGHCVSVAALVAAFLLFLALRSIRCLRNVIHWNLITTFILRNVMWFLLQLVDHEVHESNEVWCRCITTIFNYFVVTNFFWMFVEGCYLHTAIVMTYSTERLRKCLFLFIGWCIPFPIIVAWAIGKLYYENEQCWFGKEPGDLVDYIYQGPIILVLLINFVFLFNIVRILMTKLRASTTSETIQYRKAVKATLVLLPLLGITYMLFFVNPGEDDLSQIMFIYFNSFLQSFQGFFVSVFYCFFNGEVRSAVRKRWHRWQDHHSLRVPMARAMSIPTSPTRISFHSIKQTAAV
T5 sequence (P24387 whole entry): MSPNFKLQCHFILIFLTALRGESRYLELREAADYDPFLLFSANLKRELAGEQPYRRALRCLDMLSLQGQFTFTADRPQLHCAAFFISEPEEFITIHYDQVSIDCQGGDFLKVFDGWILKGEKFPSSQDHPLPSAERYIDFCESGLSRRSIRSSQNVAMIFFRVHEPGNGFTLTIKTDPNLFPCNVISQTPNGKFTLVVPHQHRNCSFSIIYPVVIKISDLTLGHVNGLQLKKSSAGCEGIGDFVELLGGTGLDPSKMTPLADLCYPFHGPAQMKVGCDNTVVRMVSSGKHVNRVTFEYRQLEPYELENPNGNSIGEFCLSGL

[16] = target: T4, Coagulation factor XII; assay: activated coagulation factor XII inhibitor potency, concentration-effect curve, cell-free (AID 716); assay type: functional
[17] = target: Mu-type opioid receptor (Homo sapiens, UniProt P35372); assay: SAR Analysis of Antagonists of the MOR Receptor using an Image-Based Assay - Set 3. [Related pubchem assays (depositor defined):AID1777, AID1785, AID1786, AID1966, AID2133, AID2136, AID2284, AID2285, AID2420]; assay type: functional
[18] = target: Delta-type opioid receptor (Homo sapiens, UniProt P41143); assay: SAR Analysis of Antagonists of the DOR Receptor using an Image-Based Assay - Set 3. [Related pubchem assays (depositor defined):AID1777, AID1785]; assay type: functional;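 also: U2OS cells expressing DOR1 and beta-arrestin GFP stimulated with 100 nM SNC80; imaging of GFP-tagged beta-arrestin moving into spots after receptor activation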
[19] = target: T6, Kappa-type opioid receptor (Homo sapiens, UniProt P41145); assay: SAR analysis of small molecule antagonists of the kappa opioid receptor via a luminescent beta-arrestin assay - Set 3. [Related pubchem assays (depositor defined):AID1777, AID1778, AID1785, AID1786, AID1966, AID2133, AID2136, AID2285, AID2495]; assay type: functional
[20] = target: T6, Kappa-type opioid receptor; assay: SAR analysis of Antagonists of the Kappa Opioid Receptor (KOR) using an Image-Based Assay - Set 3. [Related pubchem assays (depositor defined):AID1777, AID1785]; assay type: functional

## O=C(COc1ccccc1F)NC1CC1
[1]
  EC50: > 71.5 µM (inactive)

## COc1ccc(N(C(=O)CCl)C(C(=O)NC2CCCCC2)c2cccnc2)cc1 (stereo not given)
[2]
  EC50: 1.01 µM (active)
[3]
  EC50: 4.5 µM (active)
[4]
  EC50: 7.37 µM (inconclusive)
[5]
  EC50: 2.63 µM (inconclusive)
[6]
  IC50: 0.067 µM (active)
[7]
  CC50: > 45 µM (inactive)
[8]
  CC50: > 35 µM (inactive)
[9]
  AC50: 5.87 µM (active)
[10]
  AC50: 7.67 µM (active)
[11]
  EC50: 0.619 µM (active)
[12]
  AC50: 1.3 µM (active)
[13]
  AC50: 3.18 µM (active)

## CCn1c(C)c(C(C)=O)c(N2CCN(c3ccccc3)CC2)nc1=S
[14]
  IC50: > 50 µM (inactive)
[15]
  EC50: > 53 µM (inactive)

## NC(=O)Cn1cnc(-c2ccccc2)c1
[16]
  IC50: > 50 µM (inactive)

## O=C(Cn1c(=O)c2cccn2c2cccnc21)NCCCN1CCOCC1
[17]
  IC50: > 32 µM (inactive)
[18]
  IC50: > 32 µM (inactive)
[19]
  IC50: > 20 µM (inactive)
[20]
  IC50: > 32 µM (inactive)
